Experiment [1] has as its system Schistosoma mansoni. In kind it is functional. More on the design: scale not given here.
The test system of experiment [2] is Schistosoma mansoni. In kind it is functional. More on the design: scale not given here. This is another data set of the same source.
Experiment [3] relates to Schistosoma mansoni.
In experiment [4] the test system is Schistosoma mansoni. Briefly: MMV: Toxicity @ 5 uM to 4-5 Schistosoma mansoni adult males after 72 h on a scale of 0 (none) - 4 (most). Includes short descriptors of effects as judged visually (PMID:19597541). Only those Malaria box 'drug-like' cpds yielding the most severe phenotypes vs. somules were tested. Caffrey group UCSF. In kind it is functional.
For experiment [5], the system named is Schistosoma mansoni. The experiment in a line: MMV: Toxicity @ 5 uM to 4-5 Schistosoma mansoni adult males after 24 h on a scale of 0 (none) - 4 (most). Includes short descriptors of effects as judged visually (PMID:19597541). Only those Malaria box 'drug-like' cpds yielding the most severe phenotypes vs. somules were tested. Caffrey group UCSF. The experiment is classed as functional.

The test system of experiment [6] is Schistosoma mansoni. Briefly: MMV: Motility assay. Percent change (relative to DMSO controls) @ 5 uM of movement of 4-5 Schistosoma mansoni adult males after 24 h as measured by the Consensus Voting Luminance Difference algorithm available on WormAssay (PMID:22303493). Occasional incongruence ocurrs between the motility scores and the visually adjudicated 'toxicity scores'. In these cases the 'toxicity score' should be prioritized. Only those Malaria box 'Drug-like' cpds yielding the most severe phenotypes vs. somules were tested. Caffrey group UCSF. The experiment is classed as functional.

The subject of experiment [7] is Schistosoma mansoni. The experiment in a line: MMV: Motility assay. Percent change (relative to DMSO controls) @ 5 uM of movement of 4-5 Schistosoma mansoni adult males after 72 h as measured by the Consensus Voting Luminance Difference algorithm available on WormAssay (PMID:22303493). Occasional incongruence ocurrs between the motility scores and the visually adjudicated 'toxicity scores'. In these cases the 'toxicity score' should be prioritized. Only those Malaria box 'Drug-like' cpds yielding the most severe phenotypes vs. somules were tested. Caffrey group UCSF. In kind it is functional.

Experiment [8] relates to Schistosoma mansoni. The experiment in a line: MMV: Motility assay. Percent change (relative to DMSO controls) @ 5 uM of movement of 4-5 Schistosoma mansoni adult males after 48 h as measured by the Consensus Voting Luminance Difference algorithm available on WormAssay (PMID:22303493). Occasional incongruence ocurrs between the motility scores and the visually adjudicated 'toxicity scores'. In these cases the 'toxicity score' should be prioritized. Only those Malaria box 'Drug-like' cpds yielding the most severe phenotypes vs. somules were tested. Caffrey group UCSF. In kind it is functional.

For experiment [9], the system named is Schistosoma mansoni. The experiment in a line: MMV: Toxicity @ 5 uM to 4-5 Schistosoma mansoni adult males after 48 h on a scale of 0 (none) - 4 (most). Includes short descriptors of effects as judged visually (PMID:19597541). Only those Malaria box 'drug-like' cpds yielding the most severe phenotypes vs. somules were tested. Caffrey group UCSF. In kind it is functional.

Experiment [10] deals with Schistosoma mansoni. The experiment is classed as functional. Further details: scale not given here. This is another data set of the same source.

Take `CCOc1cc(Cl)c(C(C)NC(=O)c2cccc(OC)c2)cc1OCC` (configuration not stated): the Toxicity in the experiment on Schistosoma mansoni [1] is 1; in the experiment on Schistosoma mansoni [2] it was 2; in the experiment on Schistosoma mansoni [3], “No effect”.
As to `Cc1cc(N2CCCC2)nc(Nc2ccc(NC(=O)CCc3ccccc3)cc2)n1`, the Toxicity in the experiment on Schistosoma mansoni [1] was found to be 0; in the experiment with Schistosoma mansoni [4], 1; with Schistosoma mansoni [5], 2; in the experiment on Schistosoma mansoni [2] it was 4; in the experiment on Schistosoma mansoni [9], 3; with Schistosoma mansoni [10], 4. The Motility in the experiment with Schistosoma mansoni [6] is listed as 28.9; in the experiment on Schistosoma mansoni [7], “Slow”; in the experiment on Schistosoma mansoni [8], 104.8.
As for `CCn1nc(-c2ccc(C(=O)OC)cc2)nc2c(=O)n(C)c(=O)nc1-2`, the Toxicity in the experiment on Schistosoma mansoni [1] came out at 4; with Schistosoma mansoni [4], 0; in the experiment with Schistosoma mansoni [5], 0; in the experiment with Schistosoma mansoni [2], 4; with Schistosoma mansoni [9] it was 0; in the experiment on Schistosoma mansoni [10] it was 4. Also, the Motility in the experiment on Schistosoma mansoni [6] was determined as 99.1; in the experiment with Schistosoma mansoni [7], 78.5; in the experiment with Schistosoma mansoni [8] it was 97.
Regarding `Cl.Clc1cc(Br)ccc1-c1ccc(CNCC2CCNCC2)o1`, the Toxicity in the experiment on Schistosoma mansoni [1] worked out at 4; in the experiment with Schistosoma mansoni [4] it was 2; in the experiment on Schistosoma mansoni [5], 2; in the experiment with Schistosoma mansoni [2], 4; in the experiment on Schistosoma mansoni [9], 3; in the experiment with Schistosoma mansoni [10], 4. In addition, the Motility with Schistosoma mansoni [6] is 27.8; in the experiment with Schistosoma mansoni [7] it was “On sides, dark”; in the experiment with Schistosoma mansoni [8], 52.5.
Regarding `CCN(CC)CCCNc1nc(-c2ccc(Cl)cc2)nc2ccccc12`, the Toxicity in the experiment on Schistosoma mansoni [1] is reported as 2; in the experiment with Schistosoma mansoni [4], 0; in the experiment on Schistosoma mansoni [5], 0; in the experiment with Schistosoma mansoni [2] it was 4; with Schistosoma mansoni [9], 0; with Schistosoma mansoni [10], 4. Moreover, the Motility with Schistosoma mansoni [6] is recorded as 86.7; in the experiment on Schistosoma mansoni [7] it was 56; in the experiment with Schistosoma mansoni [8], 99.5.
Regarding `COc1ccc(CCN2CCC(CN(C)Cc3cnn(-c4ccccc4)c3)CC2)cc1`, the Toxicity turned out to be 2 in the experiment with Schistosoma mansoni [1]; 0 with Schistosoma mansoni [4]; 0 in the experiment with Schistosoma mansoni [5]; 1 in the experiment on Schistosoma mansoni [2]; 0 with Schistosoma mansoni [9]; 1 in the experiment with Schistosoma mansoni [10]. Further, the values for the Motility in the experiment on Schistosoma mansoni [6], in the experiment with Schistosoma mansoni [7] and with Schistosoma mansoni [8] were 33.8, 70.2 and 114.8, respectively.
In the case of `COc1ccc2nc(C)cc(Nc3ccc(Cl)cc3)c2c1`, the Toxicity with Schistosoma mansoni [1] is given as 3; with Schistosoma mansoni [4], 3; in the experiment with Schistosoma mansoni [5], 2; with Schistosoma mansoni [2], 4; in the experiment on Schistosoma mansoni [9], 2; in the experiment on Schistosoma mansoni [10] it was 4. The Motility in the experiment with Schistosoma mansoni [6] is on record as 75.2; with Schistosoma mansoni [7] it was “Slow, on sides, dark”; in the experiment with Schistosoma mansoni [8], 87.4.

The record behind these values is ChEMBL document CHEMBL2363022, “Malaria Box Schistosomiasis Screening Data” (2013).
